Active and inactive are the calls of the source. The calls are words filed in the database; no cut-off is given here.
Assays:
Jurkat = assay: Cytotoxicity against human Jurkat cells at 24.2 uM; assay type: functional, cell-based
[1] = target: T1, Tyrosine-protein phosphatase non-receptor type 1 (Homo sapiens) (UniProt P18031); assay: Inhibition of PTP1B (unknown origin) at 24.2 uM
T1 sequence (whole entry): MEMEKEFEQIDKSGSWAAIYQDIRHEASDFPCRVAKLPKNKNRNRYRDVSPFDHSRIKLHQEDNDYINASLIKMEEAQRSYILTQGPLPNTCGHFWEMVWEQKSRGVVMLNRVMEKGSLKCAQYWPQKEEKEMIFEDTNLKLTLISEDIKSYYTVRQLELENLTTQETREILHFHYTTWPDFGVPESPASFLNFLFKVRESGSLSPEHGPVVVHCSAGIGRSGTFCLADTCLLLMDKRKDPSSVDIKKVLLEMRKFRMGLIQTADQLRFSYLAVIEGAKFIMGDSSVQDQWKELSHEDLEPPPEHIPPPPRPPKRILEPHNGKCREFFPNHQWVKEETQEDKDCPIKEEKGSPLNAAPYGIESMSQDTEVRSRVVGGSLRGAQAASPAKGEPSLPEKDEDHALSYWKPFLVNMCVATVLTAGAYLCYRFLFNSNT

[2] = target: T2, Tyrosine-protein phosphatase non-receptor type 1 (Homo sapiens, UniProt P18031); assay: Inhibition of PTP1B (unknown origin)
T2 sequence (P18031 whole entry): T1 sequence (whole entry)

inhibition [1]	IC50 [2] [µM]	SMILES	inhibition (Jurkat)
42%	–	CC[C@]12CCCC(C)(C)[C@@H]1CC[C@]1(C)[C@@H]2C[C@@H](O)[C@]2(C)C3=C(CC[C@@H]12)[C@H](C)OC3=O	inactive
inactive	7.47	CC[C@@]1(C)CCC[C@]2(C)[C@H]3C[C@@H](O)[C@]4(C)C5=C(CC[C@H]4[C@]3(C)CC[C@@H]12)[C@@H](C)OC5=O	inactive
inactive	–	CC[C@@]1(C)CCC[C@]2(C)[C@H]3C[C@@H](O)[C@]4(C)C5=C(CC[C@H]4[C@]3(C)CC[C@@H]12)[C@H](C)OC5=O	inactive
42%	7.45	CC[C@]12CCCC(C)(C)[C@@H]1CC[C@]1(C)[C@@H]2C[C@@H](O)[C@]2(C)C3=C(CC[C@@H]12)[C@@H](C)OC3=O	inactive

Source: ChEMBL document CHEMBL3392984, “Two new protein tyrosine phosphatase 1B inhibitors, hyattellactones A and B, from the Indonesian marine sponge Hyattella sp” (Bioorg Med Chem Lett, 2015)
